IC50 data for 23 compounds are collected here from ChEMBL document CHEMBL3046784, “Exploring QSAR of antiamoebic agents of isolated natural products by MLR, ANN, and RTO” (Med Chem Res, 2012).

≈ marks a conversion by molar mass, not a printed value.

The test system of one assay is Entamoeba histolytica. Put plainly: Antiamoebic activity against Entamoeba histolytica. In kind it is functional, organism-based.
Conditions: not given
Broadly, the IC50 is the concentration needed to halve the response being measured. As for `COc1cc2c3cc1Oc1c(OC)c(OC)cc4c1[C@H](Cc1ccc(cc1)Oc1cc(ccc1O)C[C@H]3N(C)CC2)N(C)CC4` (stereo in doubt; 117) [AROMOLINE], the 50% inhibitory concentration (IC50) amounted to 19.64 µg/mL (≈ 32.3 µM).

The same assay, now with this note: Entamoeba histolytica; read-out: IC50.
As to `COc1ccc2cc1Oc1ccc(cc1)C[C@H]1c3c(cc(OC)c4c3Oc3cc5c(cc3O4)CCN(C)[C@H]5C2)CCN1C` [ISOTRILOBINE], the concentration for half-maximal inhibition (IC50) was 6.22 µg/mL (≈ 10.8 µM).
On the same count and under the same terms, in the case of `COc1cc2c3cc1Oc1c(O)c(OC)cc4c1[C@@H](Cc1ccc(O)c(c1)Oc1ccc(cc1)C[C@@H]3N(C)CC2)N(C)CC4` [OBAMEGINE] it was 18.3 µg/mL (≈ 30.8 µM).
On the same count and under the same terms, in the case of `COc1ccc(/C=C/C(=O)O[C@H]2[C@@H]3C=CO[C@@H](O[C@@H]4O[C@H](CO)[C@@H](O)[C@H](O)[C@H]4O)[C@@H]3[C@@]3(CO)O[C@@H]23)cc1O` [MINECOSIDE] it was 0.398 µg/mL (≈ 0.739 µM); in that of `O=c1cc(-c2ccc(O)cc2)oc2cc(O)cc(O)c12` [APIGENIN], 12.7 µg/mL (≈ 47 µM).
Same read-out and setting: the same measure for `COC1=C[C@]23CCN(C)[C@H](Cc4ccc(OC)c(O)c42)C3=CC1=O` [SALUTARIDINE]: 50 µg/mL (≈ 153 µM); for `CC(=O)O[C@H]1C(=O)O[C@@H]2C[C@H]3C(C)=CC(=O)[C@@H](O)[C@]3(C)[C@H]3[C@]4(O)OC[C@]32[C@@H]1[C@@H](C)[C@H]4O` [HOLACANTHONE]: 0.162 µg/mL (≈ 0.371 µM).
With `COC(=O)C1=CO[C@H](O[C@@H]2O[C@H](CO)[C@@H](O)[C@H](O)[C@H]2O)[C@H]2[C@@H]1C=C[C@@]21C=C(C(O)c2ccc(O)cc2)C(=O)O1` (stereo partly drawn) [GAERTNEROSIDE], the IC50 was determined as 4.3 µg/mL (≈ 7.84 µM).
The same measure, in the same setting: in the case of `CC[C@H]1CN2CCc3cc(OC)c(OC)cc3[C@@H]2C[C@@H]1C[C@H]1NCCc2c1[nH]c1ccc(O)cc21` [TUBULOSINE] it was 1.6 µg/mL (≈ 3.36 µM).
Consider `C/C=C1/CN2CCc3c(n(C)c4ccccc34)[C@@H]2C[C@@H]1Cc1nccc2c1[nH]c1ccccc12` [NBETA-METHYL USAMBARENSINE], for which the IC50 was 4.12 µg/mL (≈ 9.23 µM).
The same measure, in the same setting: in the case of `COc1cc(O)c2c(=O)c(O)c(-c3ccc(OC)c(O)c3)oc2c1` [OMBUINE] it was 70.3 µg/mL (≈ 213 µM); in that of `COc1ccc2c(c1O)-c1c(OC)c(OC)cc3c1[C@H](C2)N(C)CC3` [ISOCORYDINE], 50.1 µg/mL (≈ 147 µM).
Same read-out and setting: in the case of `C/C=C1/C[N+]2(C)CCc3c([nH]c4ccccc34)C2CC1C(CO)C(=O)OC` (stereo not drawn) [DIPLOCELINE] it was 50 µg/mL.
`COc1cc2c3cc1Oc1c(OC)c(OC)c(O)c4c1[C@H](Cc1ccc(cc1)Oc1cc(ccc1O)C[C@@H]3N(C)CC2)N(C)CC4` [THALISOPIDINE]: the IC50 was found to be 50 µg/mL (≈ 80 µM).
Same read-out and setting: the same measure for `C/C=C1/CN2CC[C@]34c5ccccc5N(C(C)=O)C3[C@H](CO)[C@H]1C[C@H]24` (stereo partly drawn) [ISORETULINE]: 21.9 µg/mL (≈ 64.7 µM); for `O=c1c(O)c(-c2ccc(O)c(O)c2)oc2cc(O)cc(O)c12` [QUERCETIN]: 114 µg/mL (≈ 378 µM); for `C/C=C1/CN2CCc3c([nH]c4ccccc34)[C@@H]2C[C@@H]1Cc1nccc2c1[nH]c1ccccc12` [USAMBARENSINE]: 0.49 µg/mL (≈ 1.13 µM).
Still for that read-out and setting: in the case of `C[C@H]1[C@H]2CC[C@H]3[C@@H]4CC=C5C[C@@H](N(C)C)CC[C@]5(C)[C@H]4CC[C@]23CN1C` [CONESSINE] it was 8.97 µg/mL (≈ 25.2 µM); in that of `COc1cc2c3c4c1Oc1cc5c(cc1O4)[C@H](Cc1ccc(O)c(c1)Oc1ccc(cc1)C[C@@H]3N(C)CC2)NCC5` [COCSOLINE], 9.86 µg/mL (≈ 18 µM); in that of `CC[C@](C)(O)C(=O)O[C@H]1C(=O)O[C@@H]2C[C@H]3C(C)=CC(=O)[C@@H](O)[C@]3(C)[C@H]3[C@@]4(O)OC[C@]32[C@@H]1[C@@H](C)[C@H]4O` [GLAUCARUBINONE], 0.168 µg/mL (≈ 0.34 µM).
On the same count and under the same terms, the same measure for `COc1ccc2c3c(c4cc(OC)c(OC)cc4c2c1)C[C@H]1CCCCN1C3` [CRYPTOPLEURINE]: 0.031 µg/mL (≈ 0.0821 µM); for `COc1cc(O)c2c(c1)O[C@H](c1ccccc1)CC2=O` [PINOSTROBIN]: 184 µg/mL (≈ 682 µM); for `COc1cc2c3cc1Oc1c(O)c(OC)cc4c1[C@H](Cc1ccc(O)c(c1)-c1cc(ccc1OC)C[C@H]3N(C)CC2)N(C)CC4` [TILIAGEINE]: 19.2 µg/mL (≈ 31.6 µM).
